Each structure is given as a SMILES string.

This assay is described as follows: Determination of aldehyde capture rate (nonenal as model aldehyde, HPLC quantification). To be noted: for Aldehyde consumption (100%): 0.05 mM compound, 0.025 mM nonenal, room temperature; for Capture rate (slope of the capture curve per unit time): higher absolute value of the slope = higher capture rate. As to the method: In the aldehyde capture test disclosed in the present invention, the stable lipid metabolite, nonenal, was used as the model aldehyde to react with the compound of the Example. The specific protocol was as follows.
0.05 mM of the compounds of the Examples of the present invention were precisely weighed respectively and dissolved in 1.2 mL of a mixed solution (v/v=1:1) of triolein (Aladdin, G105172-5g) and linoleic acid (Aladdin, L100442-25g), respectively. 2.5 mL of PBS (Solarbio, P1020) solution containing 20% Captisol® (Aladdin, Cl25030-25 g) was added, and the solution was stirred at room temperature overnight. After the example compound was completely dissolved, 0.025 mM nonenal (Sigma, 255653-5G) was added, and the solution was stirred vigorously at room temperature. […] The solution was mixed vigorously by vortex for 2 minutes, and centrifuged at a low speed of 1000 r/min for 3 minutes. The supernatant was transferred to an injection vial. The nonenal in the reaction mixture was analyzed quantitatively by high performance liquid chromatography. The adduct resulted from the example compound of the present invention and nonenal was analyzed qualitatively by high performance liquid chromatography-mass spectrometry.
Liquid Chromatograph: Waters I Class;
Column: ACQUITY UPLC HSS T3 1.8 μm;
Column temperature: 40° C.;
Liquid chromatography condition: mobile phase A: acetonitrile containing 0.1% formic acid; B: water containing 0.1% formic acid;
Injection volume: 0.5 mL.
Gradient of the mobile phases: […]
In the developed detection method, the retention time of the model aldehyde nonenal was 2.42 minutes. • Mass spectrometry conditions: • Mass spectrometer: Waters TQ-S micro • Ion source: ESI^+ • Capillary voltage: 0.5 kV • Cone voltage: 10V • Source temperature: 150° C. • Degassing temperature: 500° C., degassing flow: 1000 L/Hr • SIM mode • m/z: 225.24 [(mExample 1−OH)+H]^+, 365.42 [madduct 1+H]^+
The time-varying diagram of the capture reaction of the compounds of the examples of the present invention to nonenal is shown in FIG. 1.

In the case of `CC(C)(O)c1nc2oc3ccccc3c2cc1N` [Example 1, 2-(3-Aminobenzofuro[2,3-b]pyridin-2-yl)propan-2-ol], where the note is “135 minutes”, the “Aldehyde consumption (100%)” value came out at 24.57% and the “Capture rate (slope of the capture curve per unit time)” value is reported as −0.13. Also, for the setting “180 minutes”, the “Aldehyde consumption (100%)” value is given as 34.69% and the “Capture rate (slope of the capture curve per unit time)” value is listed as −0.14.
Taken in the same sequence, the figures for `Cn1c2ccccc2c2cc(N)c(C(C)(C)O)cc21` [Example 3, 2-(3-Amino-9-methyl-9H-carbazol-2-yl)propan-2-ol] were 0.11%, −0.01, 1.38% and −0.02.
For `CN1c2ccccc2Oc2cc(C(C)(C)O)c(N)cc21` [Example 5, 2-(2-Amino-10-methyl-10H-phenoxazin-3-yl)propan-2-ol], where the note is “135 minutes”, the “Aldehyde consumption (100%)” value was determined as 15.06% and the “Capture rate (slope of the capture curve per unit time)” value is −0.14. For the setting “180 minutes”, the “Aldehyde consumption (100%)” value is recorded as 19.05% and the “Capture rate (slope of the capture curve per unit time)” value is recorded as −0.10.
In the case of `CN1c2ccccc2Oc2cc(N)c(C(C)(C)O)cc21` [Example 6, 2-(3-Amino-10-methyl-10H-phenoxazin-2-yl)propan-2-ol], for the setting “135 minutes”, the “Aldehyde consumption (100%)” value is on record as 5.40% and the “Capture rate (slope of the capture curve per unit time)” value is −0.08. Under “180 minutes”, the “Aldehyde consumption (100%)” value is 11.94% and the “Capture rate (slope of the capture curve per unit time)” value was −0.07.
Taken in the same sequence, the figures for `CC(C)(O)c1cc2oc3ccccc3c2cc1N` [Example 8, 2-(2-Aminodibenzo[b,d]furan-3-yl)propan-2-ol] were 8.30%, −0.22, 17.80% and −0.07.
Taken in the same sequence, the figures for `CC(C)(O)c1nc2c(cc1N)Oc1ccccc1O2` [Example 9, 2-(3-Aminobenzo[5,6][1,4]dioxino[2,3-b]pyridin-2-yl)propan-2-ol] were 0.10%, −0.01, 0.10% and −0.04.
Consider `CC(C)(O)c1nc2c(cc1N)oc1ccccc12` [Example 10, 2-(3-Aminobenzofuro[3,2-b]pyridin-2-yl)propan-2-ol], for which, where the note is “135 minutes”, the “Aldehyde consumption (100%)” value stood at 9.15% and the “Capture rate (slope of the capture curve per unit time)” value is −0.08. For the same compound, under “180 minutes”, the “Aldehyde consumption (100%)” value is 9.48% and the “Capture rate (slope of the capture curve per unit time)” value is given as −0.06.
Regarding `Cn1c2ccccc2c2nc(C(C)(C)O)c(N)cc21` [Example 11, 2-(3-Amino-5-methyl-5H-pyrido[3,2-b]indol-2-yl)propan-2-ol], where the note is “135 minutes”, the “Aldehyde consumption (100%)” value came out at 7.71% and the “Capture rate (slope of the capture curve per unit time)” value is −0.06. Also, where the note is “180 minutes”, the “Aldehyde consumption (100%)” value was 12.33% and the “Capture rate (slope of the capture curve per unit time)” value is −0.08.
Taken in the same sequence, the figures for `Cn1c2cc(Cl)ccc2c2cc(N)c(C(C)(C)O)nc21` [Example 12, 2-(3-Amino-7-chloro-9-methyl-9H-pyrido[2,3-b]indol-2-yl)propan-2-ol] were 17.18%, −0.24, 30.31% and −0.16.
Consider `Cn1c2ccc(Cl)cc2c2cc(N)c(C(C)(C)O)nc21` [Example 13, 2-(3-Amino-6-chloro-9-methyl-9H-pyrido[2,3-b]indol-2-yl)propan-2-ol], for which the “Aldehyde consumption (100%)” value worked out at 6.03% (135 minutes) and 14.83% (180 minutes). Moreover, the “Capture rate (slope of the capture curve per unit time)” value (135 minutes) is −0.12 and the “Capture rate (slope of the capture curve per unit time)” value (180 minutes) is −0.08.
Taken in the same sequence, the figures for `CC(C)(O)c1cc2c(cc1N)C(C)(C)c1ccccc1-2` [Example 14, 2-(2-Amino-9,9-dimethyl-9H-fluoren-3-yl)propan-2-ol] were 36.30%, 44.51%, −0.19 and −0.28.
For `CC(C)(O)c1cc2c(cc1N)Oc1ncccc1O2` [Example 15, 2-(8-Aminobenzo[5,6][1,4]dioxino[2,3-b]pyridin-7-yl)propan-2-ol], in that order: 23.50%, 30.00%, −0.15 and −0.17.
Taken in the same sequence, the figures for `CC(C)(O)c1cc2c(cc1N)Oc1cccnc1O2` [Example 19, 2-(7-Aminobenzo[5,6][1,4]dioxino[2,3-b]pyridin-8-yl)propan-2-ol] were 19.40%, 36.90%, −0.14 and −0.25.
As for `CC(C)(O)c1cc2c(cc1N)Oc1cc(F)ccc1O2` [Example 20], for the setting “135 minutes”, the “Aldehyde consumption (100%)” value was 23.91% and the “Capture rate (slope of the capture curve per unit time)” value is −0.18. Also, where the note is “180 minutes”, the “Aldehyde consumption (100%)” value is listed as 25.45% and the “Capture rate (slope of the capture curve per unit time)” value is reported as −0.14.
Taken in the same sequence, the figures for `CC(C)(O)c1cc2c(cc1N)Oc1ccc(F)cc1O2` [Example 21] were 6.92%, −0.05, 10.06% and −0.05.
Taken in the same sequence, the figures for `CC(C)(O)c1cc2c(cc1N)Oc1nccnc1O2` [Example 23, 2-(8-Aminobenzo[5,6][1,4]dioxino[2,3-b]pyrazin-7-yl)propan-2-ol] were 16.24%, −0.12, 17.89% and −0.11.
Taken in the same sequence, the figures for `CC(C)(O)c1cc2c(cc1N)Oc1cc(Cl)ccc1O2` [Example 25] were 4.87%, −0.03, 4.88% and −0.03.
For the compound `CC(C)(O)c1cc2c(cc1N)Oc1ccc(Cl)cc1O2` [Example 26], for the setting “135 minutes”, the “Aldehyde consumption (100%)” value amounted to 2.02% and the “Capture rate (slope of the capture curve per unit time)” value is recorded as −0.02. Also, for the setting “180 minutes”, the “Aldehyde consumption (100%)” value worked out at 5.34% and the “Capture rate (slope of the capture curve per unit time)” value was −0.03.
For `CC(C)(O)c1cc2c(cc1N)N(Cc1ccccc1)c1ccccc1O2` [Example 27, 2-(2-Amino-10-benzyl-10H-phenoxazin-3-yl)propan-2-ol], in that order: 14.37%, −0.11, 17.87% and −0.10.
Taken in the same sequence, the figures for `COC1c2ccccc2-c2cc(C(C)(C)O)c(N)cc21` (stereo not drawn) [Example 28, 2-(2-Amino-9-methoxy-9H-fluoren-3-yl)propan-2-ol] were 3.77%, −0.02, 4.37% and −0.03.
For `CC(C)(C)OC(=O)N1c2ccccc2Oc2cc(C(C)(C)O)c(N)cc21` [Example 29, tert-Butyl 2-amino-3-(2-hydroxypropan-2-yl)-10H-phenoxazine-10-carboxylate], in that order: 6.52%, −0.04, 6.53% and −0.04.

The values above are taken from US20240092744A1, “TRICYCLIC COMPOUND, AND PREPARATION METHOD THEREFOR AND MEDICAL USE THEREOF” (THE NATIONAL INSTITUTES OF PHARMACEUTICAL R&D CO., LTD., priority 2020, published 2024).
